Source: the NIST ThermoML archive (doi:10.1016/j.jct.2007.05.005)
“And” between values parts separate entries of the source, which are not always exact repeats. Equal values may be shown once. ± gives the expanded uncertainty stated by the source.

Key:
[1] = 101.3 kPa, Liquid; for speed of sound: Sing-around technique in a fixed-path interferometer
[2] = xn = mol fraction of the nth substance listed; details: 101.3 kPa, Liquid, x2 = 0; for speed of sound: Sing-around technique in a fixed-path interferometer

In the case of CC(C)CC(C)(C)C [2,2,4-trimethylpentane], the mass density ([1]; 288.15 K) is reported as 695.948 ± 1.2 kg/m3, the speed of sound ([1]; 288.15 K) is reported as 1124.3 ± 2.2 m/s and the mass density ([1]; 298.15 K) is reported as 687.749 ± 1.2 kg/m3. The speed of sound ([1]; 298.15 K) was 1082.2 ± 2.2 m/s, the mass density ([1]; 323.15 K) was 666.832 ± 1.3 kg/m3 and the speed of sound ([1]; 323.15 K) was 979.25 ± 2.2 m/s.
CC(C)CC(C)(C)C [2,2,4-trimethylpentane] + CCOC(C)(C)C showed a speed of sound ([2]; 288.15 K) of 1124.3 ± 2.2 m/s, a mass density ([2]; 288.15 K) of 695.948 ± 1.2 kg/m3 and a speed of sound ([2]; 298.15 K) of 1082.2 ± 2.2 m/s. The mass density ([2]; 298.15 K) was 687.749 ± 1.2 kg/m3, the speed of sound ([2]; 323.15 K) was 979.25 ± 2.2 m/s and the mass density ([2]; 323.15 K) was 666.832 ± 1.3 kg/m3.
For CCOC(C)(C)C [2-ethoxy-2-methylpropane], the mass density ([1]; 288.15 K) was 745.656 ± 1.1 kg/m3 and 744.955 ± 1.1 kg/m3, the speed of sound ([1]; 288.15 K) was 1078.9 ± 2.2 m/s and 1076.4 ± 2.2 m/s and the mass density ([1]; 298.15 K) was 735.357 ± 1.1 kg/m3 and 734.806 ± 1.1 kg/m3. For the same compound, the speed of sound ([1]; 298.15 K) was 1033.2 ± 2.2 m/s and 1031 ± 2.2 m/s, the mass density ([1]; 303.15 K) was 730.186 ± 1.1 kg/m3 and the speed of sound ([1]; 303.15 K) was 1010.2 ± 2.2 m/s. For the same compound, the mass density ([1]; 313.15 K) was 719.687 ± 1.2 kg/m3, the speed of sound ([1]; 313.15 K) was 965.87 ± 2.2 m/s and the mass density ([1]; 323.15 K) was 709.007 ± 1.2 kg/m3 and 708.642 ± 1.2 kg/m3 and 708.996 ± 1.2 kg/m3. The speed of sound ([1]; 323.15 K) was 922.48 ± 2.2 m/s and 920.73 ± 2.2 m/s and 922.08 ± 2.2 m/s.
CC(C)(C)O [2-methylpropan-2-ol] showed a mass density ([1]; 303.15 K) of 775.028 ± 0.98 kg/m3, a speed of sound ([1]; 303.15 K) of 1098.2 ± 2.2 m/s and a mass density ([1]; 313.15 K) of 764.554 ± 1 kg/m3. For the same compound, the speed of sound ([1]; 313.15 K) was 1055.4 ± 2.2 m/s, the mass density ([1]; 323.15 K) was 753.679 ± 1 kg/m3 and the speed of sound ([1]; 323.15 K) was 1013 ± 2.2 m/s.
CC(C)(C)O [2-methylpropan-2-ol] + CCOC(C)(C)C gave a speed of sound ([2]; 303.15 K) of 1098.2 ± 2.2 m/s, a mass density ([2]; 303.15 K) of 775.028 ± 0.98 kg/m3 and a speed of sound ([2]; 313.15 K) of 1055.4 ± 2.2 m/s. For the same compound, the mass density ([2]; 313.15 K) was 764.554 ± 1 kg/m3, the speed of sound ([2]; 323.15 K) was 1013 ± 2.2 m/s and the mass density ([2]; 323.15 K) was 753.679 ± 1 kg/m3.
Compound c1ccccc1 [benzene] has a mass density ([1]; 288.15 K) of 884.183 ± 0.65 kg/m3, a speed of sound ([1]; 288.15 K) of 1345.5 ± 2.2 m/s and a mass density ([1]; 298.15 K) of 873.52 ± 0.68 kg/m3. For the same compound, the speed of sound ([1]; 298.15 K) was 1298.3 ± 2.2 m/s, the mass density ([1]; 323.15 K) was 846.641 ± 0.77 kg/m3 and the speed of sound ([1]; 323.15 K) was 1184.6 ± 2.2 m/s.
c1ccccc1 [benzene] + CCOC(C)(C)C showed a speed of sound ([2]; 288.15 K) of 1345.5 ± 2.2 m/s, a mass density ([2]; 288.15 K) of 884.183 ± 0.65 kg/m3 and a speed of sound ([2]; 298.15 K) of 1298.3 ± 2.2 m/s. It also gave a mass density ([2]; 298.15 K) of 873.52 ± 0.68 kg/m3, a speed of sound ([2]; 323.15 K) of 1184.6 ± 2.2 m/s and a mass density ([2]; 323.15 K) of 846.641 ± 0.77 kg/m3.
Work on CCO [ethanol] yielded a mass density ([1]; 288.15 K) of 793.644 ± 0.93 kg/m3, a speed of sound ([1]; 288.15 K) of 1177.3 ± 2.2 m/s and a mass density ([1]; 298.15 K) of 785.082 ± 0.95 kg/m3. For the same compound, the speed of sound ([1]; 298.15 K) was 1142.4 ± 2.2 m/s, the mass density ([1]; 323.15 K) was 763.177 ± 1 kg/m3 and the speed of sound ([1]; 323.15 K) was 1059.3 ± 2.1 m/s.
For CCO [ethanol] + CCOC(C)(C)C, the speed of sound ([2]; 288.15 K) was 1177.3 ± 2.2 m/s, the mass density ([2]; 288.15 K) was 793.644 ± 0.93 kg/m3 and the speed of sound ([2]; 298.15 K) was 1142.4 ± 2.2 m/s. It also gave a mass density ([2]; 298.15 K) of 785.082 ± 0.95 kg/m3, a speed of sound ([2]; 323.15 K) of 1059.3 ± 2.1 m/s and a mass density ([2]; 323.15 K) of 763.177 ± 1 kg/m3.
Work on CCc1ccccc1 [ethylbenzene] yielded a mass density ([1]; 288.15 K) of 870.736 ± 0.69 kg/m3, a speed of sound ([1]; 288.15 K) of 1359.1 ± 2.2 m/s and a mass density ([1]; 298.15 K) of 862.068 ± 0.72 kg/m3. It also gave a speed of sound ([1]; 298.15 K) of 1316.2 ± 2.2 m/s, a mass density ([1]; 323.15 K) of 840.054 ± 0.78 kg/m3 and a speed of sound ([1]; 323.15 K) of 1213.6 ± 2.2 m/s.
Work on CCc1ccccc1 [ethylbenzene] + CCOC(C)(C)C yielded a speed of sound ([2]; 288.15 K) of 1359.1 ± 2.2 m/s, a mass density ([2]; 288.15 K) of 870.736 ± 0.69 kg/m3 and a speed of sound ([2]; 298.15 K) of 1316.2 ± 2.2 m/s. For the same compound, the mass density ([2]; 298.15 K) was 862.068 ± 0.72 kg/m3, the speed of sound ([2]; 323.15 K) was 1213.6 ± 2.2 m/s and the mass density ([2]; 323.15 K) was 840.054 ± 0.78 kg/m3.
Cc1ccccc1 [toluene] showed a mass density ([1]; 288.15 K) of 871.457 ± 0.69 kg/m3, a speed of sound ([1]; 288.15 K) of 1347.5 ± 2.2 m/s and a mass density ([1]; 298.15 K) of 862.173 ± 0.72 kg/m3. It also gave a speed of sound ([1]; 298.15 K) of 1303.4 ± 2.2 m/s, a mass density ([1]; 323.15 K) of 838.706 ± 0.79 kg/m3 and a speed of sound ([1]; 323.15 K) of 1196.6 ± 2.2 m/s.
Work on Cc1ccccc1 [toluene] + CCOC(C)(C)C yielded a speed of sound ([2]; 288.15 K) of 1347.5 ± 2.2 m/s, a mass density ([2]; 288.15 K) of 871.457 ± 0.69 kg/m3 and a speed of sound ([2]; 298.15 K) of 1303.4 ± 2.2 m/s. For the same compound, the mass density ([2]; 298.15 K) was 862.173 ± 0.72 kg/m3, the speed of sound ([2]; 323.15 K) was 1196.6 ± 2.2 m/s and the mass density ([2]; 323.15 K) was 838.706 ± 0.79 kg/m3.
